Source: ChEMBL document CHEMBL4118277, “Selective inhibition of monoamine oxidase A by chelerythrine, an isoquinoline alkaloid” (Bioorg Med Chem Lett, 2018)

Assays:
[1] = molecular target: T1, Amine oxidase [flavin-containing] A (Homo sapiens, UniProt P21397); test: Inhibition of recombinant human MAO-A assessed as residual activity at 1.1 uM using kynuramine as substrate after 30 mins by spectrophotometric method relative to control; conditions: 0.5 h, read-out: Activity
T1 sequence (P21397 whole entry): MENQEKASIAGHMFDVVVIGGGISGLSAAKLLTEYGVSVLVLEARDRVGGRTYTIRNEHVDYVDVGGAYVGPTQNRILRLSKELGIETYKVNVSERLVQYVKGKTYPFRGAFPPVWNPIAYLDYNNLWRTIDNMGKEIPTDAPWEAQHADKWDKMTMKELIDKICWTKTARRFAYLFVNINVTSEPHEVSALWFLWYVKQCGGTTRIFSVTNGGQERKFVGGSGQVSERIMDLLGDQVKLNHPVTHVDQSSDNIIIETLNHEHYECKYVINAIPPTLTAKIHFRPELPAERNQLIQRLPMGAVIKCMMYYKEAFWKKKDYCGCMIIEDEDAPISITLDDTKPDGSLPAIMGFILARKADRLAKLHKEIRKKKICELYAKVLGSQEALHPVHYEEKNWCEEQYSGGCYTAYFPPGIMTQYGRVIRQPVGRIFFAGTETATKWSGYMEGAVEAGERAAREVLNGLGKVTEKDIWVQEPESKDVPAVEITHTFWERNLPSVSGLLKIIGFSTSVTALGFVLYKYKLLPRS

[2] = molecular target: T1, Amine oxidase [flavin-containing] A; test: Reversible inhibition of recombinant human MAO-A assessed as residual activity at 1.1 uM using kynuramine as substrate preincubated for 30 mins followed by dialysis for 6 hrs by spectrophotometric method relative to control; conditions: read-out: Activity
Homo sapiens = species on record: Homo sapiens; test: Selectivity index, ratio of IC50 for recombinant human MAO-B to IC50 for recombinant human MAO-A
[3] = molecular target: T1, Amine oxidase [flavin-containing] A; test: Inhibition of recombinant human MAO-A assessed as residual activity at 20 uM using kynuramine as substrate incubated for 20 mins by spectrophotometric method relative to control; conditions: read-out: Activity
[4] = molecular target: T2, Amine oxidase [flavin-containing] B (Homo sapiens, UniProt P27338); test: Inhibition of recombinant human MAO-B assessed as residual activity at 20 uM using benzylamine as substrate incubated for 30 mins by spectrophotometric method relative to control; conditions: 0.5 h, read-out: Activity
T2 sequence (P27338 whole entry): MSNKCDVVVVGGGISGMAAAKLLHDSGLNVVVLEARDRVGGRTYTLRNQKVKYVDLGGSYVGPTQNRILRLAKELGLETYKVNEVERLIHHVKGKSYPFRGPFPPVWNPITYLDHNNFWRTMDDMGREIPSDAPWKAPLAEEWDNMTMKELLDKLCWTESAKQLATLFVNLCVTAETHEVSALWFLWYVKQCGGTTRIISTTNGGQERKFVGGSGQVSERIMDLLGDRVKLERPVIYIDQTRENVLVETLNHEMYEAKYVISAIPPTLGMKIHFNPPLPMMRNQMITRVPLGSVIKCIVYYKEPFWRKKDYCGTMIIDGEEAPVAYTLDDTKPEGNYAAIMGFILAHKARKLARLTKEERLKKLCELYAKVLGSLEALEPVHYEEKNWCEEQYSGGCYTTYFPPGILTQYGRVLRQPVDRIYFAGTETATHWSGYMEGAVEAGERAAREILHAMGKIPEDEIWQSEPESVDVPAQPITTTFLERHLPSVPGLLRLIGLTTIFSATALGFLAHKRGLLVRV

[5] = molecular target: T1, Amine oxidase [flavin-containing] A; test: Inhibition of recombinant human MAO-A using kynuramine as substrate incubated for 20 mins by spectrophotometric method
[6] = molecular target: T2, Amine oxidase [flavin-containing] B; test: Inhibition of recombinant human MAO-B using benzylamine as substrate incubated for 30 mins by spectrophotometric method
[7] = molecular target: T1, Amine oxidase [flavin-containing] A; test: Inhibition of recombinant human MAO-A expressed in baculovirus infected insect cells using aminoproplyether of luciferin methyl ester as substrate after 90 mins by chemiluminescence assay
[8] = molecular target: T1, Amine oxidase [flavin-containing] A; test: Inhibition of recombinant human MAO-A using kynuramine as substrate by spectrophotometric method; conditions: TDE = time-dependent effect
[9] = molecular target: T1, Amine oxidase [flavin-containing] A; test: Competitive inhibition of recombinant human MAO-A using kynuramine as substrate by Lineweaver-Burk plot analysis

`Cc1cccc(N2CC(CO)OC2=O)c1` (stereo unspecified) [TOLOXATONE] was tested, and the activity at 1.1 µM [1] was 30.7% and the activity at 1.1 µM [2] was 75.4%.

Work on `O=C1/C(=C/c2ccc(O)cc2)Oc2cc(O)ccc21` yielded a Ratio IC50 (Homo sapiens) of 9.4.

With `COc1cc2c(cc1OC)[C@@H]1[C@H](C)c3ccc(OC)c(OC)c3CN1CC2` the activity at 20 µM [3] was 79.5%, the activity at 20 µM [4] was 54.7% and the IC50 [5] was greater than 20 µM. It also gave an IC50 [6] of 24.1 µM.

Compound `COc1ccc(-c2cc(=O)c3c(O)cc(O)cc3o2)cc1` has a Ratio IC50 (Homo sapiens) of 0.89.

`COc1cc2c(cc1O)[C@H]1Cc3ccc(OC)c(OC)c3CN1CC2` gave an activity at 20 µM [3] of 93.4%, an activity at 20 µM [4] of 91.4% and an IC50 [5] greater than 20 µM. The IC50 [6] was greater than 20 µM.

`C#CCN(C)CCCOc1ccc(Cl)cc1Cl` [CLORGILINE] gave an activity at 1.1 µM [1] of 17.3% and an activity at 1.1 µM [2] of 18.3%.

With `COc1cc(-c2[o+]c3cc(O)cc(O)c3cc2O)cc(OC)c1O` [MALVIDIN CHLORIDE] the IC50 [7] was 22.1 µM.

`COc1cc2c(cc1OC)-c1c(OC)c(OC)cc3ccnc(c13)C2=O` [OXOGLAUCINE] gave an activity at 20 µM [3] of 89.7%, an activity at 20 µM [4] of 64.9% and an IC50 [5] greater than 20 µM. The IC50 [6] was greater than 20 µM.

Work on `COc1ccc2c(c[n+](C)c3c4cc5c(cc4ccc23)OCO5)c1OC` [CHELERYTHRINE] yielded an activity at 20 µM [3] of 28.3%, an activity at 20 µM [4] of 94.3% and an IC50 [5] of 0.55 µM. For the same compound, the IC50 [6] was greater than 20 µM, the Ratio IC50 (Homo sapiens) was greater than 36.4 and the “inhibition (INH)” value [8] was “Tde”. For the same compound, the activity at 1.1 µM [1] was 28.5%, the activity at 1.1 µM [2] was 75% and the Ki [9] was 0.22 µM.

`CN1Cc2c(ccc3c2OCO3)[C@@]2(C)[C@@H](O)Cc3cc4c(cc3[C@@H]12)OCO4` gave an activity at 20 µM [3] of 87.9%, an activity at 20 µM [4] of 87.6% and an IC50 [5] greater than 20 µM. It also gave an IC50 [6] greater than 20 µM.

`COc1cc2c(cc1OC)[C@@H]1Cc3ccc(O)c(OC)c3CN1CC2` gave an activity at 20 µM [3] of 85.6%, an activity at 20 µM [4] of 92.8% and an IC50 [5] greater than 20 µM. It also gave an IC50 [6] greater than 20 µM.
